Structures can show the parent of a compound that is named as a salt. Where two headings read alike, the source gives them in different places.
Legend:
[1] = system: fibrin-induced microglia activation; test: Image-based assay of fibrin-induced microglia activation (HTS and dose response); type: cell-based, rat; conditions: for inhibition at 10 µM: Rattus norvegicus, Microglia, read-out: Fibrin % inhibition
[2] = system: LPS-induced microglia activation; test: Image-based assay of LPS-induced microglia activation (HTS and dose response); type: cell-based, rat
[3] = system: fibrin- and LPS-induced microglia activation; test: cells; type: cell-based, rat
primary rat microglia [4] = system: primary rat microglia;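 for Fibrin % cell toxicity: share of dead cells sized under 150 µm2 at 10 µM in fibrin-stimulated microglia HTS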
primary rat microglia [5] = system: primary rat microglia; remark: listed apart in the source;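 for Fibrin % cell toxicity: share of dead cells sized under 150 µm2 at 10 µM in fibrin-stimulated microglia HTS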
[6] = primary microglia HTS, fibrin stimulation, increased cell size (>800 μm^2) as marker of activation
[7] = quadrant by fibrin and LPS inhibition in HTS of 1907 compounds
[8] = primary microglia HTS, fibrin stimulation, compounds at 10 μM
[9] = Rattus norvegicus, Microglia, primary microglia HTS, LPS stimulation, compounds at 10 μM; read-out: LPS % inhibition
[10] = classification by fibrin and LPS inhibition, HTS at 10 μM
[11] = Rattus norvegicus, Microglia, read-out: LPS % inhibition
[12] = Rattus norvegicus, Microglia, 48 h, read-out: LPS % inhibition
[13] = Rattus norvegicus, Microglia, 48 h, primary microglia HTS, LPS stimulation; increased cell size (>800 μm^2) as marker of activation; read-out: LPS % inhibition
[14] = primary microglia HTS, fibrin stimulation, activation = cell size >800 μm2
[15] = Rattus norvegicus, Microglia, 48 h, primary microglia HTS, LPS stimulation, activation = cell size >800 μm2; read-out: LPS % inhibition
[16] = primary microglia HTS, LPS stimulation, compounds at 10 μM
[17] = quadrant by fibrin and LPS inhibition, HTS at 10 μM
[18] = primary microglia HTS, fibrin stimulation, cell size >800 μm2 as marker of activation
[19] = classification by fibrin and LPS inhibition in HTS
[20] = Rattus norvegicus, Microglia, 48 h; read-out: LPS % inhibition

SMILES | Fibrin % cell toxicity (primary rat microglia [4]; rat) [%] | LPS % cell toxicity (primary rat microglia [5]; rat) [%] | inhibition at 10 µM [1] [%] | inhibition at 10 µM [2, 11] [%] | Quadrant (FIG. 5b) [3] | further results
CCCCC1C(=O)N(c2ccccc2)N(c2ccc(O)cc2)C1=O (stereo not shown) [Oxyphenbutazone] |  |  |  |  |  | Fibrin % inhibition [1, 6]: 2%; LPS % inhibition ([2]; primary microglia HTS, LPS stimulation; increased cell size (>800 μm^2) as marker of activation): 114%; Quadrant (FIG. 5b) [3, 7]: Q1; Fibrin % cell toxicity (primary rat microglia [4]): 1%; LPS % cell toxicity (primary rat microglia [5]): 97%
O=c1oc2ccccc2c(O)c1Cc1c(O)c2ccccc2oc1=O [Dicoumarol] | 1 | 0 |  |  |  | inhibition at 10 µM [1, 8]: -24%; inhibition at 10 µM [2, 9]: 18%; Quadrant (FIG. 5b) [3, 10]: Q4
Nc1ccc(S(=O)(=O)Nc2ncccn2)cc1 [Sulfadiazine] | 0 | 0 | -19 | 13 | Q4 | 
CC1CCC(C(C)C)C(O)C1 (stereo not shown) [Menthol] | 1 | 0 | -20 |  | Q4 | inhibition at 10 µM [2, 12]: 0%
Cc1c(O)c(=O)ccn1C [Deferiprone] | 1 | 0 |  |  |  | inhibition at 10 µM [1, 8]: 31%; inhibition at 10 µM [2, 9]: 18%; Quadrant (FIG. 5b) [3, 10]: Q4
Nc1nc(=O)n([C@@H]2CS[C@H](CO)O2)cc1F [Emtricitabine] | 1 | 1 | -73 | 11 | Q4 | 
CN1CCN(CC(=O)N2c3ccccc3C(=O)Nc3cccnc32)CC1 [Pirenzepine] | 0 | 0 | 16 |  | Q4 | inhibition at 10 µM [2, 12]: 19%
COc1ccc([C@@H]2Sc3ccccc3N(CCN(C)C)C(=O)[C@@H]2OC(C)=O)cc1 [Diltiazem Hydrochloride] | 0 | 0 |  |  |  | Fibrin % inhibition ([1]; primary microglia HTS, fibrin stimulation, compounds at 10 μM, 10 µM): −5%; LPS % inhibition ([2]; primary microglia HTS, LPS stimulation, compounds at 10 μM; 10 µM): 15%; Quadrant (FIG. 5b) [3, 10]: Q4
COC(=O)[C@H]1[C@H]2C[C@@H]3c4[nH]c5cc(OC)ccc5c4CCN3C[C@H]2C[C@@H](OC(=O)c2cc(OC)c(OC)c(OC)c2)[C@@H]1OC [Reserpine] | 3 | 7 |  |  |  | inhibition at 10 µM [1, 6]: -4%; inhibition at 10 µM [2, 13]: 64%; Quadrant (FIG. 5b) [3, 7]: Q1
O=NN(CCCl)C(=O)NC1CCCCC1 [Lomustine] | 1 | 1 |  |  |  | inhibition at 10 µM [1, 14]: 0%; inhibition at 10 µM [2, 15]: 19%; Quadrant (FIG. 5b) [3, 7]: Q4
OCC(S)CS (stereo not shown) [Dimercaptopropanol, Dimercaprol] |  |  |  |  |  | Fibrin % inhibition [1, 8]: 49%; LPS % inhibition [2, 16]: 16%; Quadrant (FIG. 5b) [3, 10]: Q4; Fibrin % cell toxicity (primary rat microglia [4]): 1%; LPS % cell toxicity (primary rat microglia [5]): 0%
CN1C(C(=O)Nc2ccccn2)=C(O)c2sccc2S1(=O)=O [Tenoxicam] | 1 | 0 | 11 | 15 | Q4 | 
CN(C)c1cnccn1.O=S(=O)(O)O [Ampyzine Sulfate] |  |  |  |  | Q4 | Fibrin % inhibition ([1]; 10 µM): −18%; LPS % inhibition ([2]; 10 µM): 11%; Fibrin % cell toxicity (primary rat microglia [4]): 0%; LPS % cell toxicity (primary rat microglia [5]): 1%
O=C1C[C@@H]2OCC=C3CN4CC[C@]56c7ccccc7N1[C@H]5[C@H]2[C@H]3C[C@H]46 [Strychnine] | 1 | 0 | 1 | 18 | Q4 | 
CC(=O)Nc1c(I)c(NC(C)=O)c(I)c(C(=O)O)c1I [Diatrizoate] | 0 | 0 | 4 | 5 | Q4 | 
CC(=O)Nc1ccccc1 [Acetanilide] | 0 | 0 | -31 | 9 | Q4 | 
C=CCc1ccccc1OCC(O)CNC(C)C (stereo not shown) [Alprenolol Hydrochloride, Alprenolol] |  |  |  |  |  | Fibrin % inhibition [1, 8]: 1%; LPS % inhibition [2, 16]: 13%; Quadrant (FIG. 5b) [3, 17]: Q4; Fibrin % cell toxicity (primary rat microglia [4]): 0%; LPS % cell toxicity (primary rat microglia [5]): 1%

SMILES | Fibrin % cell toxicity (primary rat microglia [4]; rat) [%] | LPS % cell toxicity (primary rat microglia [5]; rat) [%] | inhibition at 10 µM [1] [%] | inhibition at 10 µM [2, 11] [%] | Quadrant (FIG. 5b) [3] | further results
CCOC(=O)OC(C)OC1=C(C(=O)Nc2ccccn2)N(C)S(=O)(=O)c2ccccc21 (stereo not shown) [Ampiroxicam] | 1 | 0 |  |  |  | inhibition at 10 µM [1, 8]: -9%; inhibition at 10 µM [2, 9]: 14%; Quadrant (FIG. 5b) [3, 17]: Q4
COC1=C(OC)C(=O)C(CCCCCCCCCCO)=C(C)C1=O [Idebenone] | 1 | 0 |  |  |  | inhibition at 10 µM [1, 14]: -24%; inhibition at 10 µM [2, 15]: 2%; Quadrant (FIG. 5b) [3, 7]: Q4
COc1cc(Cc2cnc(N)nc2N)cc(OC)c1OC [Trimethoprim] | 0 | 0 | -26 | 17 | Q4 | 
CCN[C@H]1C[C@H](C)S(=O)(=O)c2sc(S(N)(=O)=O)cc21 [Dorzolamide] | 1 | 1 | -40 | 15 | Q4 | 
OC(c1cc(C(F)(F)F)nc2c(C(F)(F)F)cccc12)C1CCCCN1 (stereo not shown) [Mefloquine] | 1 | 0 |  |  |  | inhibition at 10 µM [1, 6]: -18%; inhibition at 10 µM [2, 13]: 13%; Quadrant (FIG. 5b) [3, 7]: Q4
Fc1ccc(C(c2ccc(F)cc2)N2CCN(C/C=C/c3ccccc3)CC2)cc1 [Flunarizine] | 1 | 1 | -10 |  | Q4 | inhibition at 10 µM [2, 12]: 12%
CC(=O)O[C@H]1CC[C@@]2(C)C(=CC[C@@H]3[C@@H]2CC[C@]2(C)C(=O)CC[C@@H]32)C1 [Praesterone Acetate, Prasterone Acetate] |  |  |  |  |  | Fibrin % inhibition [1, 18]: −3%; LPS % inhibition [2]: 5%; Quadrant (FIG. 5b) [3, 19]: Q4; Fibrin % cell toxicity (primary rat microglia [4]): 1%; LPS % cell toxicity (primary rat microglia [5]): 0%
CCn1cc(C(=O)O)c(=O)c2cnc(N3CCNCC3)nc21 [Pipemidic Acid] | 1 | 0 |  |  |  | inhibition at 10 µM [1, 18]: -27%; inhibition at 10 µM [2, 20]: 12%; Quadrant (FIG. 5b) [3, 19]: Q4
NC(CO)(CO)CO [Tris] |  |  |  |  | Q4 | Fibrin % inhibition ([1]; 10 µM): −18%; LPS % inhibition ([2]; 10 µM): 41%; Fibrin % cell toxicity (primary rat microglia [4]): 1%; LPS % cell toxicity (primary rat microglia [5]): 1%
CN(C)CC[C@@H](c1ccc(Cl)cc1)c1ccccn1 [Dexchlorpheniramine] | 1 | 0 |  |  | Q4 | inhibition at 10 µM [1, 8]: -8%; inhibition at 10 µM [2, 9]: 11%
O=c1[nH]c(=O)n([C@H]2C[C@H](O)[C@@H](CO)O2)cc1C(F)(F)F [Trifluridine] | 1 | 1 |  |  |  | inhibition at 10 µM ([1]; primary microglia HTS, 10 μM, fibrin-stimulated, cell size >800 μm^2 as marker of activation): 10%; inhibition at 10 µM ([2]; Rattus norvegicus, Microglia, primary microglia HTS, 10 μM, LPS-stimulated, cell size >800 μm^2 as marker of activation; read-out: LPS % inhibition): 16%; Quadrant (FIG. 5b) ([3]; HTS of 1907 compounds, quadrant by fibrin and LPS inhibition): Q4
c1ccc(-c2ccc(C(c3ccccc3)n3ccnc3)cc2)cc1 (stereo not shown) [Bifonazole] | 1 | 0 | -3 | 14 | Q4 | 
CNCCCC12CCC(c3ccccc31)c1ccccc12 [Maprotiline hydrochloride, reference compound] | 1 | 1 |  |  | Q1 | Fibrin % inhibition ([1]; hydrochloride): 31%; inhibition at 10 µM [2, 12]: 67%; Activity [3]: fib/LPS
Clc1ccc(COC(Cn2ccnc2)c2ccc(Cl)cc2Cl)cc1 (stereo not shown) [Econazole] | 0 | 0 | 0 | 18 | Q4 | 
Cc1c(O)cccc1C(=O)N[C@@H](CSc1ccccc1)[C@H](O)CN1C[C@H]2CCCC[C@H]2C[C@H]1C(=O)NC(C)(C)C [Nelfinavir] | 1 | 0 |  |  |  | inhibition at 10 µM [1, 6]: 16%; inhibition at 10 µM [2, 13]: 13%; Quadrant (FIG. 5b) [3, 7]: Q4
C=C[C@H]1C[N@@]2CC[C@H]1C[C@@H]2[C@@H](O)c1ccnc2ccc(OC)cc12 [Quinidine] | 1 | 0 |  |  |  | inhibition at 10 µM [1, 18]: -6%; inhibition at 10 µM [2, 20]: 20%; Quadrant (FIG. 5b) [3, 19]: Q4

Source: patent US20210330611A1, “THERAPY FOR NEUROLOGICAL DISEASES/DISORDERS” (priority 2020, published 2021)
